Read-outs that look alike come from different tables or passages of the source.
What was measured:
[1] = test system: ADP-induced platelet aggregation; experiment: Anti-platelet aggregation test in vitro (ADP-induced, rat platelet-rich plasma); assay type: cell-based, SD rats; details: for inhibition at 100 µM: Platelet, 2 μL of 100 μM compound in 300 μL rat PRP, read-out: inhibition rate on ADP-induced platelet aggregation; for onset of anti-aggregation effect after addition to PRP: immediately after addition
Protocol: When healthy adult SD rats were anesthetized by intraperitoneal injection of 10% chloral hydrate, fresh whole blood was collected from the abdominal aorta and added to a centrifuge tube anticoagulated with 3.8% sodium citrate solution, and centrifuged at 900 rpm for 10 minutes to remove the upper platelet-rich plasma (PRP) for use. The tube having PRP removed was further centrifuged at 4000 rpm for 10 minutes, and the upper clarified plasma (PPP) was removed for use. In the experiment, Techlink model LBY-NJ4 4-channel platelet aggregator was used to determine the anticoagulant efficacy of each compound.
Into a sample cup containing 300 μL of PRP, 2 μL of 100 μM PGE1, Compound 1 of Example, Compound 2 of Example and methanol (solvent) were first added. After incubated for different periods (0, 1, 2, 4, 7, 10, 15 min), […], of aggregation inducer 180 μM ADP solution was added. The aggregation rate of each sample was measured, and the inhibitory rate of the compound on ADP-induced platelet aggregation was calculated. Inhibition rate %=(solvent aggregation rate−compound aggregation rate)/solvent aggregation rate×100%

[2] = test system: isolated rabbit blood vessels (thoracic aorta vascular ring); experiment: Vasodilation test in vitro (isolated aortic ring); assay type: cell-based, New Zealand white rabbits; details: Oryctolagus cuniculus; cumulative addition 0.05-25.6 nM; read-out: diastolic efficacy on isolated rabbit blood vessels, EC50
Protocol: In the experiment, rabbits were selected to prepare isolated aortic ring specimens: New Zealand white rabbits, male, weighing (2.5±0.3) kg. The rabbit was stunned with a blunt instrument, fixed on the rabbit dissecting table, and the thoracic aorta was quickly separated, and placed in a petri dish filled with saturated Kerbs solution (containing NaCl 6.9 g, KCl 0.35 g, MgSO4.7H2O 0.29 g, KH2PO4 0.16 g, NaHCO3 2.1 g, CaCl2 0.28 g, glucose 2 g per 1000 mL) at 37° C. and continuously introduced with mixed gas (95% O2, 5% CO2). The remaining blood in the blood vessel was squeezed out, and the peripheral fat and connective tissue were carefully peeled off, and it was cut into 0.5 cm long arterial rings for use. […]
BL-420S biological function experiment system (Chengdu Techman Technology) was used to record the variation of vascular ring tension. After the vascular ring contraction was stable, prostaglandin E1 and the compounds of the Examples were accumulatively added to successively increase the final mass concentration of prostaglandin E1 in the bath tube to 0.05, 0.1, 0.2, 0.4, 0.8, 1.6, 3.2, 6.4, 12.8, 25.6 nM, and the diastolic efficacies of the vascular ring were recorded.

[3] = 10 min, after 10 minutes of incubation

Compound	inhibition at 100 µM [1, 3] [%]	onset of anti-aggregation effect after addition to PRP ([1]; rat PRP)	duration of anticoagulant effect relative to PGE1 ([1]; rat PRP, versus PGE1) [times]	EC50 [2] [nM]	inhibition at 100 µM ([1]; 4 min, after 4 minutes of incubation) [%]
CCCCC[C@H](O)/C=C/[C@H]1[C@H](O)CC(=O)[C@@H]1CCCCCCC(=O)OC [Compound 1]	43.7	take effect immediately	2	1.09	
CCCCC[C@H](O)/C=C/[C@H]1[C@H](O)CC(=O)[C@@H]1CCCCCCC(=O)OCC [Compound 2]	51.9	does not take effect immediately			
CCCCC[C@H](O)/C=C/[C@H]1[C@H](O)CC(=O)[C@@H]1CCCCCCC(=O)O [PGE1, Prostaglandin E1]		take effect immediately		9.77	4.93

From patent US12708604B2, “Lyophilized preparation of prostaglandin E1 methyl ester for injection and production and use thereof” (Xi'an Hanfeng Pharmaceutical Co., Ltd., priority 2018, dated 2026)
